From US7572459B2, “Anionic or cationic dendrimer antimicrobial or antiparasitic compositions” (Starpharma Pty Ltd., priority 1998, dated 2009)

assay type: cell-based
Description: • II The following assay results were obtained in an in vitro assay to test for inhibition of Trypanosoma (T) and Plasmodium (P) species.

Substance	Cytotoxicity MIC [µg/mL]
BHAlys31lys32(NHCSNHPhOP[O] [ONa]2)64 [BRI6181]	>100
PAMAM 4.0 EDA(NHCSNH SaccharinNa)32 [BRI6157]	>100
PAMAM 4.0 EDA(NHCSNH-3,5 Ph [COOH]2)32 [BRI6195]	>100
